Experimental data: US20110105544A1, “CARBOXYLIC DERIVATIVES FOR USE IN THE TREATMENT OF CANCER” (priority 2007, published 2011)

What was measured:
[1] = tested on: human colon cancer cell line HCT116; assay: alamarBlue viability assay, HCT116; format: cell-based; conditions: HCT-116, 72 hours, dose required to inhibit cell growth by 50%
Experimental: (§1) The human colon cancer cell line HCT116 and the human breast cancer cell line MCF-7 were from the American Type Culture Collection (ATCC; CCL-247 and HTB-22, respectively).
(§2) The HCT116 cell line was maintained in DMEM GlutaMAX (Invitrogen) supplemented with 10% fetal calf serum and the MCF7 cell line was maintained in RPMI1640 GlutaMAX (Invitrogen) containing 1 mM sodium piruvate and 10% fetal calf serum.
(§3) Cells were grown in a humidified incubator at 37° C. in 5% CO2.
(§4) Cells were plated in 96-well plates at a density of 6000 cells/well in 100 μl medium 24 h before addition of drugs. […] To do so, a drugs-dilution plate at twice the screening concentrations was prepared. 72 hours later, alamarBlue (Biosource, Invitrogen) viability assay was performed following manufacturer's protocol. In brief, alamarBlue diluted in media was added to cells to have a 5% solution. Cells were incubated at 37° C., 3 hours and at room temperature, 30 min. Cells with no drug and, cells with no drug and lysed with triton X-100 were used as controls. Fluorescence was monitored at 530 nm excitation and 590 nm emission wavelengths. Results were quantified using Infinite F200 Microplate Reader (Tecan Group, Ltd.). EC50 were calculated as the dose of drugs required to inhibit cell growth by 50%, with Origin 7.0 computer program.

PC3 (prostate) = assay: alamarBlue viability assay, PC3; format: cell-based; conditions: 72 hours
Experimental: (§5) Additionally, the following cancer cell lines were used:
as §3, §4

MDA-MB-435P (breast) = assay: alamarBlue viability assay, MDA-MB-435P; format: cell-based; conditions: 72 hours
Experimental: as §5, §3
(§6) Cells were plated in 96-well plates at a density of 6000 cells/well in 100 μl medium 24 h before addition of drugs. They were then added in concentrations from 100 μM to 0.45 nM (each concentration in triplicate). To do so, a drugs-dilution plate at twice the screening concentrations was prepared. 72 hours later, alamarBlue (Biosource, Invitrogen) viability assay was performed following manufacturer's protocol. In brief, alamarBlue diluted in media was added to cells to have a 5% solution. Cells were incubated at 37° C., 3 hours and at room temperature, 30 min. Cells with no drug and, cells with no drug and lysed with triton X-100 were used as controls. Fluorescence was monitored at 530 nm excitation and 590 nm emission wavelengths. Results were quantified using Infinite F200 Microplate Reader (Tecan Group, Ltd.). EC50 were calculated as the dose of drugs required to inhibit cell growth by 50%, with Origin 7.0 computer program.

MDA-MB-468 (breast) = assay: alamarBlue viability assay, MDA-MB-468; format: cell-based; conditions: Homo sapiens, 72 hours
Experimental: as §5, §3, §6

NP-9 (pancreas) = assay: alamarBlue viability assay, NP-9; format: cell-based; conditions: 72 hours
Experimental: The NP-9 cell line from pancreas, was provided by Dr. R. Alemany from Translational Research Laboratory (Institut Catala d'Oncologia). (cf., Cascallò, M. et al., “Ras-dependent Oncolysis with an Adenovirus VAI mutant”, Cancer Research, 2003, 63, 5544-5550). This cells was maintained in DMEM:F12 (Invitrogen) supplemented with 10% fetal calf serum (Invitrogen), L-glutamine […] (Invitrogen), pyruvate […] (Invitrogen).
as §3
as §6, with “EC50 were calculated as the dose of drugs required to inhibit cell growth by 50%, with Origin 7.0 computer program.” left out

Hep3B (hepatocarcinoma) = assay: alamarBlue viability assay, Hep3B; format: cell-based; conditions: Homo sapiens, 72 hours
Experimental: as §5, §3, §4

HepG2 (hepatocarcinoma) = assay: alamarBlue viability assay, HepG2; format: cell-based; conditions: Homo sapiens, 72 hours
Experimental: as §5, §3, §6

A549 (lung) = assay: alamarBlue viability assay, A549; format: cell-based; conditions: Homo sapiens, 72 hours
Experimental: as §5, §3, §6

SK-mel-98 (melanoma) = assay: alamarBlue viability assay, SK-mel-98; format: cell-based; conditions: 72 hours
Experimental: as §5, §3, §6

U87 (glioblastoma) = assay: alamarBlue viability assay, U87; format: cell-based; conditions: 72 hours
Experimental: as §5, §3, §6

T98G (glioblastoma) = assay: alamarBlue viability assay, T98G; format: cell-based; conditions: Homo sapiens, 72 hours
Experimental: as §5, §3, §6

human recombinant HDAC 2 = target: T1, human recombinant HDAC 2 (Homo sapiens, UniProt Q92769); assay: HDAC inhibition assay (Fluor de Lys), HDAC2; format: biochemical; conditions: inhibitor-protein incubation 2 hours, reaction 1 h 30 min, 37° C.
T1 construct: purchased BPS Bioscience 50002
T1 sequence (Q92769 whole entry): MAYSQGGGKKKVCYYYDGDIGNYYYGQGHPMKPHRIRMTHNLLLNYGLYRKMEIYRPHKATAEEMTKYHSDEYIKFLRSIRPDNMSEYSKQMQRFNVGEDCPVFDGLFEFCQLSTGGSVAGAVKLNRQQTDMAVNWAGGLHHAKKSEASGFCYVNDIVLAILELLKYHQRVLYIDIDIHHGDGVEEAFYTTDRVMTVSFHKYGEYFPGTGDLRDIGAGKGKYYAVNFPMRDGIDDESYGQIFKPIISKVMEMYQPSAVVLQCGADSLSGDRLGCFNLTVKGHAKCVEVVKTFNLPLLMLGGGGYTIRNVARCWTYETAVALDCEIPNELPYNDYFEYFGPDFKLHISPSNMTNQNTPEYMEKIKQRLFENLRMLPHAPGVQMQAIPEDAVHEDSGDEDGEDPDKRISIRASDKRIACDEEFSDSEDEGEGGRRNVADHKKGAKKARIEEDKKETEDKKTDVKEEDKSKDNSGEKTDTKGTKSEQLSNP
Experimental: (§7) All assays were carried out in the assay buffer: 50 mM Tris/Cl, pH 8.0, 137 mM NaCl, 2.7 mM KCl, 1 mM MgCl2).
(§8) Reactions were carried out in a 96-wells microplate (Corning 96 well Flat Bottom Non-binding surface (black) ref. 3651).
(§9) Potential inhibitors were added after five fold serial dilutions in DMSO. Final DMSO concentration in the assay microplate was kept at 2%.
(§10) Afterwards, human recombinant HDAC1, HDAC 2 or HDAC 8 were added up to […] respectively in assay buffer. When necessary, the mixture was incubated at room temperature prior the addition of substrate.
(§11) Total reaction volume of 50 μl. Human recombinant HDACs could be acquired from commercial sources (HDAC1: ref. #50001, BPS Bioscience™; HDAC 2: ref. #50002, BPS Bioscience™; HDAC 8: ref. #50008, BPS Bioscience™).
(§12) Reactions were stopped with 50 μl Developer (KI-105 Fluor de Lys™, BIOMOL®) with 2 μmol/L trichostatin A (TSA, final concentration 1 μmol/L). After 20 minutes at 37° C., fluorescence (excitation 360 nm, emission 460 nm) was measured using an Infinite F200 fluorimeter (Tecan). Background was determined in reactions using substrate in the absence of enzyme.
(§13) IC50 values are defined as the compound concentration at which the deacetylase activity is 50% inhibited. In these assays the following grading was used (I: IC50≦10 μM; II: 10 μM<IC50≦100 μM; III: 100 μM<IC50≦1 mM) The results obtained are summarized in Table 4.

human recombinant HDAC 8 = target: T2, human recombinant HDAC 8 (Homo sapiens, UniProt Q9BY41); assay: HDAC inhibition assay (Fluor de Lys), HDAC8; format: biochemical; conditions: inhibitor-protein incubation 0 hours, reaction 3 hours, 37° C.
T2 construct: purchased BPS Bioscience 50008
T2 sequence (Q9BY41 1-377): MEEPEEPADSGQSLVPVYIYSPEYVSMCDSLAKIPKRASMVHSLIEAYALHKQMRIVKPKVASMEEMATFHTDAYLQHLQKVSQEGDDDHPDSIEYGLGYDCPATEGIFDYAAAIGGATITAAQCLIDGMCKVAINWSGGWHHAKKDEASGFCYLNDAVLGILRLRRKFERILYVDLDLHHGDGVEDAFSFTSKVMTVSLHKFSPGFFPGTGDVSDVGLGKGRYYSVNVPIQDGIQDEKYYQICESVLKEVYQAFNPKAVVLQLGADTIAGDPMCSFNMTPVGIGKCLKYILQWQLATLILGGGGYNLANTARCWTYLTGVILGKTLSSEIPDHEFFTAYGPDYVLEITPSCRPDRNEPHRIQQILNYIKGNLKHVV
Experimental: as §7, §8, §9, §10, §11, §12, §13

[2] = tested on: human breast cancer cell line MCF-7; assay: alamarBlue viability assay, MCF-7; format: cell-based; conditions: MCF7, 72 hours, dose required to inhibit cell growth by 50%
Experimental: as §1, §2, §3, §4

HDACs = assay: HDAC inhibition assays, isoform not specified; format: biochemical, human; conditions: result in words
Experimental: as §7, §8, §9, §10, §11, §12
(§14) IC50 values are defined as the compound concentration at which the deacetylase activity is 50% inhibited. […]

K562 (lymphoma) = assay: alamarBlue viability assay, K562; format: cell-based; conditions: Homo sapiens, 72 hours
Experimental: as §5, §3, §4

human recombinant HDAC1 = target: T3, human recombinant HDAC1 (Homo sapiens, UniProt Q13547); assay: HDAC inhibition assay (Fluor de Lys), HDAC1; format: biochemical; conditions: inhibitor-protein incubation 0 hours, reaction 3 hours, 25° C.
T3 construct: purchased BPS Bioscience 50001
T3 sequence (Q13547 whole entry): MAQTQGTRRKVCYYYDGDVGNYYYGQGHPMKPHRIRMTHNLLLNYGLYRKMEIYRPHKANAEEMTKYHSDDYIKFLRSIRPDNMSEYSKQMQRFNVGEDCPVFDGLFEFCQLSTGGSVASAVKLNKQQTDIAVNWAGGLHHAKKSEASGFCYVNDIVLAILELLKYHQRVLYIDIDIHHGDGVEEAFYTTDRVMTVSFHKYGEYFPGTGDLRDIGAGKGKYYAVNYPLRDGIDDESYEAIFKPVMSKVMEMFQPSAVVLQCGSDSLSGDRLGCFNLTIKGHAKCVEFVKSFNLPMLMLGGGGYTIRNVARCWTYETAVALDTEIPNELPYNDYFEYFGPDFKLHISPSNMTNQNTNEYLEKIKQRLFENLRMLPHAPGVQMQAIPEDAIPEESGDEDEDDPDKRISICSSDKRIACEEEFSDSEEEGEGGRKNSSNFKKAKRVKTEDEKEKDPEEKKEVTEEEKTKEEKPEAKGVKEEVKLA
Experimental: as §7, §8, §9, §10, §11, §12, §14

| Structure (SMILES) | EC50 [1] [µM] | EC50 (PC3 (prostate)) [µM] | EC50 (MDA-MB-435P (breast)) [µM] | EC50 (MDA-MB-468 (breast)) [µM] | EC50 (NP-9 (pancreas)) [µM] | EC50 (Hep3B (hepatocarcinoma)) [µM] | EC50 (HepG2 (hepatocarcinoma)) [µM] | EC50 (A549 (lung)) [µM] | EC50 (SK-mel-98 (melanoma)) [µM] | EC50 (U87 (glioblastoma)) [µM] | EC50 (T98G (glioblastoma)) [µM] | IC50 (human recombinant HDAC 2) [µM] | IC50 (human recombinant HDAC 8) [µM] | EC50 [2] [µM] | inhibition of the target of these compounds (i.e. HDACs) (HDACs) | EC50 (K562 (lymphoma)) [µM] | IC50 (human recombinant HDAC1) [µM] |
| --- | --- | --- | --- | --- | --- | --- | --- | --- | --- | --- | --- | --- | --- | --- | --- | --- | --- |
| CCc1ccc(CCC(CCCc2ccc(S(=O)(=O)Nc3ccccc3)cc2)C(=O)O)cc1 (centres unmarked) [Example 46, 5-[4-(Anilinosulfonyl)phenyl]-2-[2-(4-ethylphenyl)ethyl]pentanoic acid] | 54 | 55.6 | 52 | 99.8 | 102 | 107 | 103 | 62.3 | 78.3 | 43 | 118 | 10 to 100 | ≤ 10 | – | – | – | – |
| CNS(=O)(=O)c1ccc(CC(CCc2ccccc2)C(=O)O)cc1 (centres unmarked) [Example 12, 2-{4-[(methylamino)sulfonyl]benzyl}-4-phenylbutanoic acid] | 5000 | – | – | – | – | – | – | – | – | – | – | – | 100 to 1000 | 5000 | clear inhibition | – | – |
| COc1ccc(NS(=O)(=O)c2cccc(CCCC(CCc3ccccc3)C(=O)O)c2)cc1OC (centres unmarked) [Example 43, 5-(3-{[(3,4-dimethoxyphenyl)amino]sulfonyl}phenyl)-2-(2-phenylethyl)pentanoic acid] | 75 | 336 | 210 | 87 | – | – | – | – | – | – | – | 100 to 1000 | 10 to 100 | – | – | 2.55 | – |
| CNS(=O)(=O)c1cccc(CCCC(CCc2ccccc2)C(=O)OCOC(C)=O)c1 (centres unmarked) [Example 19, (Acetyloxy)methyl 5-(3-[(methylamino)sulfonyl]phenyl)-2-(2-phenylethyl)pentanoate] | 65 | – | 6.7 | 13 | – | – | – | – | – | – | – | – | – | – | – | – | – |
| O=C(O)C(CCCc1ccccc1)CCc1ccc(OCc2ccccc2)cc1 (centres unmarked) [Example 55, 2-[2-(4-Benzyloxyphenyl)ethyl]-5-phenylpentanoic acid] | 23 | 102 | 16 | 43 | – | 418 | – | – | – | – | – | 10 to 100 | ≤ 10 | – | – | – | – |
| Cc1ccc(NS(=O)(=O)c2cccc(CCCC(CCc3ccccc3)C(=O)O)c2)cc1 (centres unmarked) [Example 36] | 98 | 168 | 125 | 55.4 | 41 | 99.7 | 140 | 104 | 170 | 105 | 118 | 10 to 100 | 10 to 100 | – | – | 157 | – |
| O=C(O)C(CCc1ccccc1)Cc1ccccc1 (centres unmarked) [Example 9, 2-Benzyl-4-phenylbutanoic acid] | 636 | 364 | 242 | 364 | – | – | – | – | – | – | – | – | 100 to 1000 | 1060 | – | 472 | – |
| O=C(O)C(CCCc1ccccc1)CCc1ccccc1 (centres unmarked) [Example 11, 5-Phenyl-2-(2-phenylethyl)pentanoic acid] | 177 | – | 253 | – | – | – | – | – | – | – | – | 100 to 1000 | 10 to 100 | 268 | – | – | 100 to 1000 |
| CNS(=O)(=O)c1cccc(CCCC(CCc2ccccc2)C(=O)O)c1 (centres unmarked) [Example 41, 5-(3-[(Methylamino)sulfonyl]phenyl)-2-(2-phenylethyl)pentanoic acid] | 644 | – | – | – | – | – | – | – | – | – | – | 100 to 1000 | 10 to 100 | – | – | – | 100 to 1000 |
